This note sets out measurements from PubChem BioAssay AID1259407 (Chemical Carcinogenesis Research Information System (CCRIS), 2018).

Calls of active or inactive are those of the source. No rule for the calls is given here.

This data set relates to CCRIS mutagenicity, Ames/micronucleus/aberration tests. In words: CCRIS mutagenicity studies.
[1] abbreviates: Test System: AMES SALMONELLA TYPHIMURIUM, Strain/Indicator: TA98, Metabolic Activation: NONE, Method: STANDARD PLATE.
Setting [2] is: Test System: AMES SALMONELLA TYPHIMURIUM, Strain/Indicator: TA98, Metabolic Activation: RAT, LIVER, S-9, AROCLOR 1254, Method: STANDARD PLATE.
Where [3] appears, read: Test System: AMES SALMONELLA TYPHIMURIUM, Strain/Indicator: TA100, Metabolic Activation: NONE, Method: STANDARD PLATE.
Where [4] appears, read: Test System: AMES SALMONELLA TYPHIMURIUM, Strain/Indicator: TA100, Metabolic Activation: RAT, LIVER, S-9, AROCLOR 1254, Method: STANDARD PLATE.
[5] abbreviates: Test System: AMES SALMONELLA TYPHIMURIUM, Strain/Indicator: TA98, Metabolic Activation: NONE, Method: PREINCUBATION

Take `CCOP(=S)(OCC)SCn1c(=O)oc2cc(Cl)ccc21`: the mutagenic call reads like this: (Test System: AMES SALMONELLA TYPHIMURIUM, Strain/Indicator: TA97A, Metabolic Activation: NONE, Method: STANDARD PLATE) “inactive; negative”; (Test System: AMES SALMONELLA TYPHIMURIUM, Strain/Indicator: TA97A, Metabolic Activation: RAT, CECAL CELL FREE EXTRACT, Method: STANDARD PLATE) “inactive; negative”; (Test System: AMES SALMONELLA TYPHIMURIUM, Strain/Indicator: TA97A, Metabolic Activation: RAT, LIVER, S-9, AROCLOR 1254, Method: STANDARD PLATE) “inactive; negative”; under setting [1], “inactive; negative”; (Test System: AMES SALMONELLA TYPHIMURIUM, Strain/Indicator: TA98, Metabolic Activation: RAT, CECAL CELL FREE EXTRACT, Method: STANDARD PLATE) “inactive; negative”; under setting [2], “inactive; negative”. The mutagenic call runs as follows: under setting [3], “inactive; negative”; (Test System: AMES SALMONELLA TYPHIMURIUM, Strain/Indicator: TA100, Metabolic Activation: RAT, CECAL CELL FREE EXTRACT, Method: STANDARD PLATE) “inactive; negative”; under setting [4], “inactive; negative”.

For `NC(=O)CN1CC(O)CC1=O` (stereo not given), the mutagenic call is “inactive; negative” (Test System: AMES SALMONELLA TYPHIMURIUM, Strain/Indicator: TA98, Metabolic Activation: NONE); “inactive; negative” (Test System: AMES SALMONELLA TYPHIMURIUM, Strain/Indicator: TA98, Metabolic Activation: RAT, LIVER, S-9, AROCLOR 1254); “inactive; negative” (Test System: AMES SALMONELLA TYPHIMURIUM, Strain/Indicator: TA100, Metabolic Activation: NONE); “inactive; negative” (Test System: AMES SALMONELLA TYPHIMURIUM, Strain/Indicator: TA100, Metabolic Activation: RAT, LIVER, S-9, AROCLOR 1254); “inactive; negative” (Test System: AMES SALMONELLA TYPHIMURIUM, Strain/Indicator: TA1535, Metabolic Activation: NONE); “inactive; negative” (Test System: AMES SALMONELLA TYPHIMURIUM, Strain/Indicator: TA1535, Metabolic Activation: RAT, LIVER, S-9, AROCLOR 1254). Moreover, the mutagenic call is, setting by setting: (Test System: AMES SALMONELLA TYPHIMURIUM, Strain/Indicator: TA1537, Metabolic Activation: NONE) “inactive; negative”; (Test System: AMES SALMONELLA TYPHIMURIUM, Strain/Indicator: TA1537, Metabolic Activation: RAT, LIVER, S-9, AROCLOR 1254) “inactive; negative”; (Test System: E. COLI, Strain/Indicator: WP2 UVRA, Metabolic Activation: NONE) “inactive; negative”; (Test System: E. COLI, Strain/Indicator: WP2 UVRA, Metabolic Activation: RAT, LIVER, S-9, AROCLOR 1254) “inactive; negative”.

On to `O=C1c2ccccc2-c2ccccc21`, for which the mutagenic call is, setting by setting: (Test System: AMES SALMONELLA TYPHIMURIUM, Strain/Indicator: TA98, Metabolic Activation: HAMSTER, LIVER, S-9, AROCLOR 1254, Method: STANDARD PLATE) “inactive; negative”; under setting [1], “inactive; negative”; under setting [2], “inactive; negative”; (Test System: AMES SALMONELLA TYPHIMURIUM, Strain/Indicator: TA100, Metabolic Activation: HAMSTER, LIVER, S-9, AROCLOR 1254, Method: STANDARD PLATE) “inactive; negative”; under setting [3], “inactive; negative”; under setting [4], “inactive; negative”. The mutagenic call was “inactive; negative” (Test System: AMES SALMONELLA TYPHIMURIUM, Strain/Indicator: TA1535, Metabolic Activation: HAMSTER, LIVER, S-9, AROCLOR 1254, Method: STANDARD PLATE); “inactive; negative” (Test System: AMES SALMONELLA TYPHIMURIUM, Strain/Indicator: TA1535, Metabolic Activation: NONE, Method: STANDARD PLATE); “inactive; negative” (Test System: AMES SALMONELLA TYPHIMURIUM, Strain/Indicator: TA1535, Metabolic Activation: RAT, LIVER, S-9, AROCLOR 1254, Method: STANDARD PLATE); “inactive; negative” (Test System: AMES SALMONELLA TYPHIMURIUM, Strain/Indicator: TA1537, Metabolic Activation: HAMSTER, LIVER, S-9, AROCLOR 1254, Method: STANDARD PLATE); “inactive; negative” (Test System: AMES SALMONELLA TYPHIMURIUM, Strain/Indicator: TA1537, Metabolic Activation: NONE, Method: STANDARD PLATE); “inactive; negative” (Test System: AMES SALMONELLA TYPHIMURIUM, Strain/Indicator: TA1537, Metabolic Activation: RAT, LIVER, S-9, AROCLOR 1254, Method: STANDARD PLATE). Further, the mutagenic call (Test System: MOUSE LYMPHOMA, Strain/Indicator: L5178Y (TK+/TK-), Metabolic Activation: NONE, Method: SUSPENSION/PLATE) was “inactive; negative. reevaluation of results: inconclusive” and the mutagenic call (Test System: MOUSE LYMPHOMA, Strain/Indicator: L5178Y (TK+/TK-), Metabolic Activation: RAT, LIVER, S-9, AROCLOR 1254, Method: SUSPENSION/PLATE) is “inactive; negative. reevaluation of results: negative”.

On to `O=P(OCCC(Br)CBr)(OCCC(Br)CBr)OCCC(Br)CBr` (stereo not given), for which the mutagenic call (Test System: AMES SALMONELLA TYPHIMURIUM, Strain/Indicator: TA100, Metabolic Activation: RAT, LIVER, MICROSOMES, PHENOBARBITAL, Method: PREINCUBATION) is “inactive; negative” and the mutagenic call (Test System: AMES SALMONELLA TYPHIMURIUM, Strain/Indicator: TA100, Metabolic Activation: RAT, LIVER, MICROSOMES, Method: PREINCUBATION) is “inactive; negative”.

For the compound `O=C(CC(O)(CC(=O)OCCBr)C(=O)OCCBr)OCCBr`, the mutagenic call under setting [3] is “inactive; negative” and the mutagenic call under setting [4] is “active; positive”.

Turning to `COC(=O)N/N=C/c1c[n+]([O-])c2ccccc2[n+]1[O-]`, the mutagenic call reads like this: under setting [5], “active; positive”; (Test System: AMES SALMONELLA TYPHIMURIUM, Strain/Indicator: TA98, Metabolic Activation: S-9, Method: PREINCUBATION) “active; positive”; (Test System: E. COLI, Strain/Indicator: WP2 UVRA (PKM101), Metabolic Activation: NONE) “active; positive”; (Test System: E. COLI, Strain/Indicator: WP2 UVRA (PKM101), Metabolic Activation: S-9) “active; positive”.

With `N#CCCC(=O)CCc1ccc(C(=O)O)cc1`, the mutagenic call is “active; positive” under setting [5]; “inactive; negative” (Test System: AMES SALMONELLA TYPHIMURIUM, Strain/Indicator: TA98, Metabolic Activation: RAT, LIVER, S-9, PCB, Method: PREINCUBATION); “inactive; negative” (Test System: AMES SALMONELLA TYPHIMURIUM, Strain/Indicator: TA100, Metabolic Activation: NONE, Method: PREINCUBATION); “inactive; negative” (Test System: AMES SALMONELLA TYPHIMURIUM, Strain/Indicator: TA100, Metabolic Activation: RAT, LIVER, S-9, PCB, Method: PREINCUBATION).
